Literature values in PMC6271218, “Pharmacokinetics, Tissue Distribution and Excretion of Verticinone from F. hupehensis in Rats” (Molecules, 2014).

Parameters: method as in PMID 20446906
Details: same dose administered; cited from earlier work

Compound: C[C@@H](Oc1cc(-c2cnn(C3CCNCC3)c2)cnc1N)c1c(Cl)ccc(F)c1Cl [PF-02341066]
- plasma concentrations, fold higher in male than in female rats: at least 2 fold
